Reference: US20160015064A1, “COMPOUNDS, COMPOSITIONS, AND METHODS FOR MODULATING SWEET TASTE” (CHROMOCELL CORPORATION, priority 2013, published 2016)

Assays:
[1] = test system: flavor; settings: DuBois, et al., J. Med. Chem., 1981; cited from earlier work
[2] = test system: perception of the sweet taste of an aqueous solution of sweetener; experiment: Ranking sip and spit test of sweetness perception (R index); assay type: in vivo, humans; settings: compound 10 ppm, vs negative control
Description: The effect of the test compounds on the perception of the sweet taste of an aqueous solution of sweetener in humans was evaluated using a ranking “sip and spit” method.
(§1) The aqueous sweetener solutions were prepared by adding, fructose, sucrose or glucose (by weight), to water to achieve the desired concentration.
(§2) Compounds were first prepared as a 500-fold concentrated stock solution in 100% ethanol. These concentrated stocks were then added to the aqueous sweetener solutions to result in a final ethanol concentration of 0.2%. The control (positive and negative) samples were also normalized to 0.2% ethanol.
In the ranking test used for compound evaluation, taste panelists (n=15), rank samples in increasing order of sweetness. One set, comprising of 6 samples, was presented to each panelists at a given time and are asked to rank them in order of increasing sweetness.
Panelists were instructed not to eat or drink (except water) for at least 1 h before the test. During the test, panelists were instructed to sip each sample, swirl it around their mouth and then expectorate. After tasting each set, panelists were instructed to rank the 6 samples within the set from least sweet to most sweet. Where rank 1—is lowest in sweetness and rank 6—is highest in sweetness. Panelists cleansed their palates by rinsing with water, eating a cracker and waiting for an interval of 10 minutes. All samples were tasted at ambient temperatures. Each sample was tasted twice.
R index analysis was utilized to determine the degree of difference between a test and control sample. It indicates the level of discrimination between two samples. […] A positive control sample was used to assess the ability of the panelists to accurately discriminate sweetness perception differences from the negative control.

[3] = test system: perception of the sweet taste in an aqueous environment; experiment: Trained descriptive analysis (DA) panel, sweet attribute; assay type: in vivo, humans; settings: for Compound effects beyond the additive effect of inherent sweetness: 4% fructose and 8% sucrose
Description: The effect of the test compounds on the perception of the sweet taste in an aqueous environment, in the absence or presence of carbohydrate sweeteners, was evaluated using a descriptive analysis methodology with a group of trained panelists, as follows.
Candidate panelists were recruited, with prescreening and personal interviews, and were assessed for their ability to detect, recognize and differentiate basic taste attributes or mixtures thereof as part of a standardized acuity test. These candidate panelists were also assessed for their innate ability to identify flavors, and to rank on intensity scales. Other senses such as smell and vision were also included as part of the assessment. Candidates also were screened for their ability to use the language to describe and articulate ideas.
Selected candidates proceeded to training as a group in three phases: (1) Lexicon development, (2) Concept alignment, and (3) Scaling descriptors. During lexicon development, panelists evaluated products appropriate for use in the study to generate and align on terms describing the flavor, taste, aromatic, trigeminal, and temporal attributes. During concept alignment, the panel evaluated the products mentioned above to clarify and confirm the attributes that were generated during lexicon development using reference standards that appropriately define each attribute; these are either physical references (e.g. sucrose solutions) or verbal descriptions (e.g. overall flavor). Product terms and concepts were validated during this portion of the study.
In the last phase, scaling descriptors, the panel participated in a series of exercises focused on ordering and ranking samples according to relative attribute intensity, measuring attribute intensity using a defined length of line scale. Whenever possible, different levels or concentration of references were used as anchors to facilitate use of the scale. Panelists were provided with blinded references at this stage to evaluate their understanding and perception of the scale.
The panel used in this example was trained to reference sweet attributes in an absolute manner, such that a particular concentration of sweetener is always measured by the panelists at the same point using a 15 cm line scale where each cm represents a 1% increase in sucrose to cover the range of 0% to 15% sucrose. For the rest of the attributes, the panel was trained using a hybrid approach between descriptive analysis methods (e.g. quantitative descriptive analysis, the sensory spectrum, etc.) well-known to those skilled in the art.
The trained panel was then used for a descriptive analysis assessment for Compounds 1, 2 and 3 in aqueous solutions at pH 3 and pH 7. Each of the three compounds was tested at 35 ppm in sucrose and fructose sweeteners. In addition, Compounds 1, 2 and 3 were also examined in water at pH 3 and pH 7 to assess for any inherent sweetness.
The aqueous sweetener solutions were prepared by adding, fructose or sucrose (by weight), to water to achieve the desired concentration. Aqueous sucrose solutions at pH 3 were buffered using a final concentration of 0.096% Citric Acid plus 0.036% Sodium Citrate while aqueous fructose solutions at pH 3 were buffered using a final concentration of 0.06% Citric Acid and 0.0225% Sodium Citrate.
Compounds were first prepared as a […] concentrated stock solution in 100% ethanol. These concentrated stocks were then added to the aqueous sweetener solutions to result in a final ethanol concentration of 0.2%. In addition to compounds, a solubilizing agent at a final concentration of 0.02% was added to the aqueous sweetener solutions. Control samples were also balanced with 0.2% ethanol and in certain cases 0.02% solubilizing agent.
Both control (aqueous sweetener solutions without compound) and variant (aqueous sweetener solutions with compound) samples were blinded and randomized (by sweetener and pH blocks). […]

[4] = test system: perception of the sweet taste of an aqueous solution of sweetener; experiment: Two-alternative forced choice sip and spit method (2AFC); assay type: in vivo, humans
Description: The effect of the test compounds on the perception of the sweet taste of an aqueous solution of sweetener in humans was evaluated using a two-alternative forced choice “sip and spit” method (2AFC).
as §1
as §2, with “0.2% ethanol. This level of ethanol was not seen to contribute any perceived sweetness.” for “0.2% ethanol.”
The 2AFC test used for compound evaluation was a blind and randomized test where taste panelists (n=15) evaluate a pair of sweetener solutions at a time—one sample contains aqueous sweetener solution plus compound (i.e. test) while the other contains aqueous sweetener solution at higher concentration without compound (i.e. positive control). Each test sample was compared against a positive control. For example, if the test sample contained 1× sweetener concentration with compound (e.g. 5% sucrose with compound), the positive control sample contained a 1.1× sweetener concentration (e.g. 5.5% sucrose without compound).
Panelists were instructed not to eat or drink (except water) for at least 1 h before the test. During the test, panelists were instructed to sip each sample, swirl it around their mouth and then expectorate. After tasting each sample in the pair, panelists were instructed to record the sample that is “sweeter” in taste. Panelists cleansed their palates by rinsing with water, eating a cracker and waiting for an interval of about 5 minutes. Each pair was tasted twice. All samples were tasted at ambient temperatures. Data were analyzed using binomial probabilities.
Approximate levels of sweetness enhancement in column 5 of Table 2 were calculated as follows:
Approximate levels of sweetness enhancement=Sweetener concentration of positive control surpassed by the test sample, divided by sweetener concentration for compound-containing sample (e.g. 1.15×=5.75% sucrose/5% sucrose).

[5] = 4% fructose, pH 3, 35 ppm compound plus solubilizing agent
[6] = 4% fructose, pH 7, 35 ppm compound plus solubilizing agent
[7] = 8% sucrose, pH 3, 35 ppm compound plus solubilizing agent
[8] = 8% sucrose, pH 7, 35 ppm compound plus solubilizing agent

SMILES: COc1ccc(C2CC(=O)c3c(O)cccc3O2)cc1O (racemic) [Compound 1, 5-hydroxy-2-(3-hydroxy-4-methoxyphenyl)chroman-4-one]
- Reported flavor (bitter) [1]: bitter flavor in a significant portion of tasters
- Reported flavor (sweet) [1]: sweet flavor
- R Index Score ([2]; 4% fructose test sample): 90
- R Index Score ([2]; 5% sucrose test sample, significant at R index ≧60): 93
- DA Panel Average Sweetness Intensity Score (on 15 cm scale) [3, 5]: 6.94
- Fold enhancement of sweetness perception as compared to control sweetener solution [3, 5]: 1.38X
- DA Panel Average Sweetness Intensity Score (on 15 cm scale) [3, 6]: 7.80
- Fold enhancement of sweetness perception as compared to control sweetener solution [3, 6]: 1.78X
- DA Panel Average Sweetness Intensity Score (on 15 cm scale) [3, 7]: 9.31
- Fold enhancement of sweetness perception as compared to control sweetener solution [3, 7]: 1.29X
- DA Panel Average Sweetness Intensity Score (on 15 cm scale) [3, 8]: 9.97
- Fold enhancement of sweetness perception as compared to control sweetener solution [3, 8]: 1.33X
- DA Panel Average Sweetness Intensity Score (on 15 cm scale) ([3]; citric acid-citrate solution pH 3, no sweetener, 35 ppm compound plus solubilizing agent): 1.14
- Perceived inherent sweetness compared to solubilizing agent alone ([3]; citric acid-citrate solution pH 3, 35 ppm compound plus solubilizing agent): do not show further significant increase in perceived inherent sweetness
- Compound effects beyond the additive effect of inherent sweetness ([3]; pH 3, 35 ppm): super-additive effects
- Perceived sweetness vs control sweetener solutions (FIG. 2) ([3]; pH 3, fructose and sucrose, 35 ppm, ** p<0.01): significant increase in perceived sweetness
- Compound effects beyond the additive effect of inherent sweetness ([3]; pH 7, 35 ppm): super-additive effects
- Perceived sweetness vs control sweetener solutions (FIG. 1) ([3]; pH 7, fructose and sucrose, 35 ppm, ** p<0.01): significant increase in perceived sweetness
- DA Panel Average Sweetness Intensity Score (on 15 cm scale) ([3]; water pH 7, no sweetener, 35 ppm compound plus solubilizing agent, 1 cm = 1% sucrose): 1.57
- Perceived sweetness compared to solubilizing agent alone (inherent sweetness) ([3]; water pH 7, 35 ppm compound plus solubilizing agent): further increase in perceived sweetness
- Fold increase in perceived sweetness ([4]; test sample 4% fructose, compound 25 ppm with positive 2AFC): >1.20X
- Fold increase in perceived sweetness ([4]; test sample 5% sucrose, compound 15 ppm with positive 2AFC, positive control surpassed / test sweetener concentration): >1.15X
- Fold increase in perceived sweetness ([4]; test sample 6.5% glucose, compound 10, 25 ppm with positive 2AFC): >1.15X
